System: green rice leafhopper (female adults)
Assay: Test 2 (Effect on Green Rice Leafhopper)
Assay type: in vivo
Details: Nephotettix cincticeps, 48 hours, female adults, read-out: Mortality (%)
Method: Compounds (a) through (g) described below were tested as comparative compounds in the same manner as the compounds of the present invention. All the tests were doubly carried out. Namely, each result was expressed by an average value of two data.
Four or five seedlings of paddy rice with three leaves were bundled, and thereon the same dilution of the emulsifiable concentrate as used in Test 1 was sprayed in an amount of 3 ml. The bundle was dried and covered with a metal net cylinder, and 10 female adults of green rice leafhopper were set free in the cylinder. 48 hours after, the number of killed adults was counted.

SMILES: COc1ccc(C(C)(C)CCCc2cccc(Oc3ccccc3)c2)cc1OC [Compound 22]
- mortality at 20 ppm: 50%
- mortality at 100 ppm: 95%

SMILES: CC(C)=Cc1ccc(C(C)(C)CCCc2cccc(Oc3ccccc3)c2)cc1 [Compound 59]
- mortality at 20 ppm: 70%
- mortality at 100 ppm: 100%

SMILES: CCOc1ccc(C(C)(C)CCCc2ccc(F)c(Sc3ccccc3)c2)cc1 [Compound 36]
- mortality at 20 ppm: 100%
- mortality at 100 ppm: 100%

SMILES: CC(C)(CCCc1cccc(Oc2ccccc2)c1)c1ccc(C(=O)OCCF)cc1 [Compound 68]
- mortality at 20 ppm: 40%
- mortality at 100 ppm: 80%

SMILES: CCOc1ccc(C(C)(C)CCCc2cccc(Sc3ccccc3)c2)cc1 [Compound 30]
- mortality at 20 ppm: 70%
- mortality at 100 ppm: 100%

SMILES: CCOc1ccc(C(C)(C)CCCc2cccc(Oc3ccc(Cl)cc3)c2)cc1 [Compound 39]
- mortality at 20 ppm: 90%
- mortality at 100 ppm: 100%

SMILES: CCOc1ccc(C(C)(C)CCCc2cccc(C(=O)c3ccccc3)c2)cc1 [Compound 34]
- mortality at 20 ppm: 50%
- mortality at 100 ppm: 100%

SMILES: CC(C)(CCCc1cccc(Oc2ccccc2)c1)c1cccc(C(F)(F)F)c1 [Compound 2, 1-(3-phenoxyphenyl)-4-(3-trifluoromethylphenyl)-4-methylpentane]
- mortality at 20 ppm: 80%
- mortality at 100 ppm: 100%

SMILES: CCOc1ccc(C(C)(C)CCCc2cccc(Oc3ccccc3)c2)cc1OCC [Compound 28]
- mortality at 20 ppm: 80%
- mortality at 100 ppm: 100%

SMILES: CC(C)(CCCc1cccc(Oc2ccccc2)c1)c1ccc(C(=O)OC(F)(F)C(F)F)cc1 [Compound 69]
- mortality at 20 ppm: 75%
- mortality at 100 ppm: 100%

SMILES: CCOc1ccc(C(C)(C)CCCc2cccc(Cc3ccccc3)c2)cc1 [Compound 14, 1-(3-benzylphenyl)-4-(4-ethoxyphenyl)-4-methylpentane]
- mortality at 20 ppm: 50%
- mortality at 100 ppm: 90%

SMILES: CCOc1ccc(C(C)(C)CCCc2cccc(C(=O)c3ccccc3)c2)cc1Br [Compound 13, 1-(3-benzoylphenyl)-4-(3-bromo-4-ethoxyphenyl)-4-methylpentane]
- mortality at 20 ppm: 40%
- mortality at 100 ppm: 100%

SMILES: CCC(C)(CCCc1cccc(Oc2ccccc2)c1)c1ccc(Cl)cc1 (stereo not drawn) [Compound 7, 1-(3-phenoxyphenyl)-4-(4-chlorophenyl)-4-methylhexane]
- mortality at 20 ppm: 65%
- mortality at 100 ppm: 100%

SMILES: CC(C)(CCC(C#N)c1ccc(F)c(Oc2ccccc2)c1)c1ccc(Cl)cc1 (stereo not drawn) [Compound 62, 1-(3-Phenoxy-4-fluorophenyl)-1-cyano-4-(4-chlorophenyl)-4-methylpentane]
- mortality at 20 ppm: 45%
- mortality at 100 ppm: 100%

SMILES: CC(C)(CCCc1cccc(Oc2ccccc2)c1)c1ccc(Br)cc1 [Compound 47]
- mortality at 20 ppm: 75%
- mortality at 100 ppm: 100%

SMILES: CC(C)C(C)(CCCc1cccc(Oc2ccccc2)c1)c1ccc(Cl)cc1 (stereo not drawn) [Compound 49]
- mortality at 20 ppm: 60%
- mortality at 100 ppm: 100%

SMILES: CCOc1ccc(C(C)(C)CCC(C#N)c2cccc(Oc3ccccc3)c2)cc1 (stereo not drawn) [Compound 15, 1-(3-Phenoxyphenyl)-1-cyano-4-(4-ethoxyphenyl)-4-methylpentane]
- mortality at 20 ppm: 70%
- mortality at 100 ppm: 95%

SMILES: CC(C)(CCCc1cccc(Oc2ccccc2)c1)c1ccc(OC(F)(F)C(Cl)Cl)cc1 [Compound 25]
- mortality at 20 ppm: 90%
- mortality at 100 ppm: 100%

SMILES: Clc1ccc(C2(CCCc3cccc(Oc4ccccc4)c3)CC2(Cl)Cl)cc1 (stereo not drawn) [Compound 50, 1-(3-Phenoxyphenyl)-3-[1-(4-chlorophenyl)-2,2-dichlorocyclopropyl]-propane]
- mortality at 20 ppm: 50%
- mortality at 100 ppm: 100%

SMILES: C#CC(CCC(C)(C)c1ccc(OCC)cc1)c1ccc(F)c(Oc2ccccc2)c1 (stereo not drawn) [Compound 51, 1-(3-Phenoxy-4-fluorophenyl)-1-ethynyl-4-(4-ethoxyphenyl)-4-methylpentane]
- mortality at 20 ppm: 60%
- mortality at 100 ppm: 90%

SMILES: CCOc1ccc(C(C)(C)CCCc2cccc(Oc3ccccc3F)c2)cc1 [Compound 42]
- mortality at 20 ppm: 100%
- mortality at 100 ppm: 100%
